Experimental data as given in ChEMBL document CHEMBL1145498, “A systematic interaction map of validated kinase inhibitors with Ser/Thr kinases” (Proc Natl Acad Sci U S A, 2007).

Target: Serine/threonine-protein kinase PAK 4 (Homo sapiens) (UniProt O96013)
Sequence (O96013 whole entry, looked up): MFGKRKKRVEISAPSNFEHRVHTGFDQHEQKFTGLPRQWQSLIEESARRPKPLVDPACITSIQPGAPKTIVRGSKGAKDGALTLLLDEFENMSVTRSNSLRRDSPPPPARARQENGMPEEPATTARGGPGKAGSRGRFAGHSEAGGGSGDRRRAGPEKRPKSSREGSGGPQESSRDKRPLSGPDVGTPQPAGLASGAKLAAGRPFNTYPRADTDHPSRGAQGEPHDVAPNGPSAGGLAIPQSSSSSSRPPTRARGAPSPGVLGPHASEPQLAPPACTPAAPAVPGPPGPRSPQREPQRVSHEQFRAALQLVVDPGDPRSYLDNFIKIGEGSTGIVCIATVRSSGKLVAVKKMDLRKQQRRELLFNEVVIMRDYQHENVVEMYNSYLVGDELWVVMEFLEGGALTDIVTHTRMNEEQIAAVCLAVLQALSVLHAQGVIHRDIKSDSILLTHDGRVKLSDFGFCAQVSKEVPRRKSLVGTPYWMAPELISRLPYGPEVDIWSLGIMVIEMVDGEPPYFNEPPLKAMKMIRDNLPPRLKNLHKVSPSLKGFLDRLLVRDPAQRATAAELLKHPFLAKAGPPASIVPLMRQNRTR

Row | Compound | ΔTm [°C]
1 | C[S+]([O-])c1ccc(CSc2nc(-c3ccc(F)cc3)c(-c3ccncc3)[nH]2)cc1 (stereo not given) | 0.1
2 | NC1=N/C(=C2/CCNC(=O)c3[nH]ccc32)C(=O)N1 [DEBROMOHYMENIALDISINE] | 0.9

The next lines start with the values.

Row | ΔTm [°C] | Compound
3 | 1.6 | COc1cc(O)c2c(c1)oc(=O)c1c3cc(O)c(O)cc3oc21 [WEDELOLACTONE]
4 | 2.5 | CN(C)CCCn1cc(C2=C(c3c[nH]c4ccccc34)C(=O)NC2=O)c2ccccc21 [GF-109203]
5 | 1.6 | Cl.Cn1cc(C2=C(c3ccc4cc5n(c4c3)CCC(CN)C5)C(=O)NC2=O)c2ccccc21 (stereo not given)

Target: Ribosomal protein S6 kinase alpha-3 (Homo sapiens) (UniProt P51812)
Sequence (P51812 whole entry): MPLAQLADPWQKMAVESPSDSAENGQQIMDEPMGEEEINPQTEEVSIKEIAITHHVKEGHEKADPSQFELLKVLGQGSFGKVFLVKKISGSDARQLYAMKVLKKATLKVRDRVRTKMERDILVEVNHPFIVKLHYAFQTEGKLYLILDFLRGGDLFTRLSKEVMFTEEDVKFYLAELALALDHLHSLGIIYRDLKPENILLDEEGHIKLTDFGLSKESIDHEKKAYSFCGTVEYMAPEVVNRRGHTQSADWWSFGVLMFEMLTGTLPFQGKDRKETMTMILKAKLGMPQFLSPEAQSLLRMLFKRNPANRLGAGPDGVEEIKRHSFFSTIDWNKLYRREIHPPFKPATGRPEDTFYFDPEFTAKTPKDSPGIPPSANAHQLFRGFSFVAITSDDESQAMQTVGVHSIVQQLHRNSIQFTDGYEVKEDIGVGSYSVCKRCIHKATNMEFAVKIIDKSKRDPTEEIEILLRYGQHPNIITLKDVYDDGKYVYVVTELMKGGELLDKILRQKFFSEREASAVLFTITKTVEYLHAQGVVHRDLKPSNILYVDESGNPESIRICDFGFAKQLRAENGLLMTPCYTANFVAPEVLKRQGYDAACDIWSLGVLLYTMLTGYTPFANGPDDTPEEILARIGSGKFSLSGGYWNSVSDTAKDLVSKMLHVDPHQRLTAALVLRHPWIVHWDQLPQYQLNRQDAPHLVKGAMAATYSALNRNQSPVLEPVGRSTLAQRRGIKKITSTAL

Row | Compound | ΔTm [°C]
6 | C[S+]([O-])c1ccc(CSc2nc(-c3ccc(F)cc3)c(-c3ccncc3)[nH]2)cc1 (stereo not given) | 0.1
7 | NC1=N/C(=C2/CCNC(=O)c3[nH]ccc32)C(=O)N1 [DEBROMOHYMENIALDISINE] | 2.6

The next lines start with the values.

Row | ΔTm [°C] | Compound
8 | 1.8 | COc1cc(O)c2c(c1)oc(=O)c1c3cc(O)c(O)cc3oc21 [WEDELOLACTONE]
9 | 7.8 | CN(C)CCCn1cc(C2=C(c3c[nH]c4ccccc34)C(=O)NC2=O)c2ccccc21 [GF-109203]
10 | 6 | Cl.Cn1cc(C2=C(c3ccc4cc5n(c4c3)CCC(CN)C5)C(=O)NC2=O)c2ccccc21 (stereo not given)

Target: T1, Serine/threonine-protein kinase 4 (Homo sapiens) (UniProt Q13043)
T1 sequence (whole entry): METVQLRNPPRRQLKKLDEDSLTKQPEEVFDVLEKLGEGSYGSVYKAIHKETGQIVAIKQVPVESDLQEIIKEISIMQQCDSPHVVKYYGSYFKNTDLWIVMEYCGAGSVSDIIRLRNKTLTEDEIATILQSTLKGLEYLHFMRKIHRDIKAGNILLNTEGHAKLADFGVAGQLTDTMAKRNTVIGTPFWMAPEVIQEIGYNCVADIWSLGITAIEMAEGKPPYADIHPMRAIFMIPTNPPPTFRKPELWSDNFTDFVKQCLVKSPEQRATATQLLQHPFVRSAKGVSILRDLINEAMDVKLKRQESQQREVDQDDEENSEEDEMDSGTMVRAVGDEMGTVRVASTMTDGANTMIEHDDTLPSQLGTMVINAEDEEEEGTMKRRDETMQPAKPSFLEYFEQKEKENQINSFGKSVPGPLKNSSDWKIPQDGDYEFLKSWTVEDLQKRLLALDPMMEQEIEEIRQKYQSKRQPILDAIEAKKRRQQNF

Row | Compound | ΔTm [°C]
11 | C[S+]([O-])c1ccc(CSc2nc(-c3ccc(F)cc3)c(-c3ccncc3)[nH]2)cc1 (stereo not given) | 0.1
12 | NC1=N/C(=C2/CCNC(=O)c3[nH]ccc32)C(=O)N1 [DEBROMOHYMENIALDISINE] | 2.6

Second part, the molecule after the results:

Row | ΔTm [°C] | Compound
13 | 2.4 | COc1cc(O)c2c(c1)oc(=O)c1c3cc(O)c(O)cc3oc21 [WEDELOLACTONE]
14 | 5.7 | CN(C)CCCn1cc(C2=C(c3c[nH]c4ccccc34)C(=O)NC2=O)c2ccccc21 [GF-109203]
15 | 7.1 | Cl.Cn1cc(C2=C(c3ccc4cc5n(c4c3)CCC(CN)C5)C(=O)NC2=O)c2ccccc21 (stereo not given)

Target: T2, Lymphokine-activated killer T-cell-originated protein kinase (Homo sapiens) (UniProt Q96KB5)
T2 sequence (whole entry): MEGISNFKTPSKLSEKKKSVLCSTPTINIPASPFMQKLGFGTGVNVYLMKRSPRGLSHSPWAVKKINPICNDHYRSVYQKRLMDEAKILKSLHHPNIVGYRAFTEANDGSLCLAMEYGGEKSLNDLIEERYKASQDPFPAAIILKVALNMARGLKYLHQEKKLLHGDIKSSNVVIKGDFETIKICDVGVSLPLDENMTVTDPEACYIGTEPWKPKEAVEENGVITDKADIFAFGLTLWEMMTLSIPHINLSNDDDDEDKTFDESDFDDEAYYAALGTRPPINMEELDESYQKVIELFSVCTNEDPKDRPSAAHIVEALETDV

Row | Compound | ΔTm [°C]
16 | COc1cc(O)c2c(c1)oc(=O)c1c3cc(O)c(O)cc3oc21 [WEDELOLACTONE] | 0
17 | CN(C)CCCn1cc(C2=C(c3c[nH]c4ccccc34)C(=O)NC2=O)c2ccccc21 [GF-109203] | 0.2
18 | Cl.Cn1cc(C2=C(c3ccc4cc5n(c4c3)CCC(CN)C5)C(=O)NC2=O)c2ccccc21 (stereo not given) | -0.6
19 | C[S+]([O-])c1ccc(CSc2nc(-c3ccc(F)cc3)c(-c3ccncc3)[nH]2)cc1 (stereo not given) | 0.5
20 | NC1=N/C(=C2/CCNC(=O)c3[nH]ccc32)C(=O)N1 [DEBROMOHYMENIALDISINE] | -0.4

Target: Cyclin-dependent kinase 2 (Homo sapiens, UniProt P24941)

Row | Compound | ΔTm [°C]
21 | C[S+]([O-])c1ccc(CSc2nc(-c3ccc(F)cc3)c(-c3ccncc3)[nH]2)cc1 (stereo not given) | 0.5
22 | NC1=N/C(=C2/CCNC(=O)c3[nH]ccc32)C(=O)N1 [DEBROMOHYMENIALDISINE] | 0.7

Other lines, results leading:

Row | ΔTm [°C] | Compound
23 | -4.5 | COc1cc(O)c2c(c1)oc(=O)c1c3cc(O)c(O)cc3oc21 [WEDELOLACTONE]
24 | 1.7 | CN(C)CCCn1cc(C2=C(c3c[nH]c4ccccc34)C(=O)NC2=O)c2ccccc21 [GF-109203]
25 | 2.4 | Cl.Cn1cc(C2=C(c3ccc4cc5n(c4c3)CCC(CN)C5)C(=O)NC2=O)c2ccccc21 (stereo not given)

Target: Serine/threonine-protein kinase pim-3 (Homo sapiens) (UniProt Q86V86)

Row | Compound | ΔTm [°C]
26 | C[S+]([O-])c1ccc(CSc2nc(-c3ccc(F)cc3)c(-c3ccncc3)[nH]2)cc1 (stereo not given) | -0.4
27 | NC1=N/C(=C2/CCNC(=O)c3[nH]ccc32)C(=O)N1 [DEBROMOHYMENIALDISINE] | 2.4

More lines, now with the values ahead:

Row | ΔTm [°C] | Compound
28 | 5.9 | COc1cc(O)c2c(c1)oc(=O)c1c3cc(O)c(O)cc3oc21 [WEDELOLACTONE]
29 | 9.1 | CN(C)CCCn1cc(C2=C(c3c[nH]c4ccccc34)C(=O)NC2=O)c2ccccc21 [GF-109203]
30 | 4.7 | Cl.Cn1cc(C2=C(c3ccc4cc5n(c4c3)CCC(CN)C5)C(=O)NC2=O)c2ccccc21 (stereo not given)

Target: Casein kinase I isoform gamma-2 (Homo sapiens) (UniProt P78368)
Sequence (P78368 whole entry, looked up, canonical isoform): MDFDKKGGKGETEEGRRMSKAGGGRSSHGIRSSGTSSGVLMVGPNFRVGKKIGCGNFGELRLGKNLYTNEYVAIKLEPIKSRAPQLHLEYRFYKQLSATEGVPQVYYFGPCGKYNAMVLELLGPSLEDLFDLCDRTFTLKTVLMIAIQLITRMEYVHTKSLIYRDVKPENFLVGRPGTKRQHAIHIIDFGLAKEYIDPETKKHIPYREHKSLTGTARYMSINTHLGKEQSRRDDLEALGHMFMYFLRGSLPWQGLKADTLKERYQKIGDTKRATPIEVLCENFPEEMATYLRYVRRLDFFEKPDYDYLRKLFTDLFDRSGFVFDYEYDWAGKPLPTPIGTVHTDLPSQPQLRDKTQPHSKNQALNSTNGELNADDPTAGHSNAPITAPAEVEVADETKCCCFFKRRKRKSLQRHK

Row | Compound | ΔTm [°C]
31 | C[S+]([O-])c1ccc(CSc2nc(-c3ccc(F)cc3)c(-c3ccncc3)[nH]2)cc1 (stereo not given) | 0.9
32 | NC1=N/C(=C2/CCNC(=O)c3[nH]ccc32)C(=O)N1 [DEBROMOHYMENIALDISINE] | 3.5

The next lines start with the values.

Row | ΔTm [°C] | Compound
33 | 2.7 | COc1cc(O)c2c(c1)oc(=O)c1c3cc(O)c(O)cc3oc21 [WEDELOLACTONE]
34 | 0.5 | CN(C)CCCn1cc(C2=C(c3c[nH]c4ccccc34)C(=O)NC2=O)c2ccccc21 [GF-109203]
35 | 0.4 | Cl.Cn1cc(C2=C(c3ccc4cc5n(c4c3)CCC(CN)C5)C(=O)NC2=O)c2ccccc21 (stereo not given)

Target: Serine/threonine-protein kinase RIO2 (Homo sapiens) (UniProt Q9BVS4)
Sequence (Q9BVS4 whole entry, looked up): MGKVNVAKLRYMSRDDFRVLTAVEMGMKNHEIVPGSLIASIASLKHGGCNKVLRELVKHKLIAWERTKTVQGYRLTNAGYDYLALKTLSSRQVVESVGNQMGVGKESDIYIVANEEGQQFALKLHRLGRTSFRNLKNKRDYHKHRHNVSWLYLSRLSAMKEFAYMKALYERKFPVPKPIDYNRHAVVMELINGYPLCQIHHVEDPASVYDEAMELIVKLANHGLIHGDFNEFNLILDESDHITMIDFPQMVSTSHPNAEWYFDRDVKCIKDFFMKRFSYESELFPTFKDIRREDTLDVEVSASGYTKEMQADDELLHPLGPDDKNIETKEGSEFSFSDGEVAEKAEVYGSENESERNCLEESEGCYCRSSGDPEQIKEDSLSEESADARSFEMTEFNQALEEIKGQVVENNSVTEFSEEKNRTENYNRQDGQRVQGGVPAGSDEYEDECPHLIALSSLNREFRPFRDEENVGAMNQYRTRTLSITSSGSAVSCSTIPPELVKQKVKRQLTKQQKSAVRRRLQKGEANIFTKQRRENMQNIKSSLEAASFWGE

Row | Compound | ΔTm [°C]
36 | C[S+]([O-])c1ccc(CSc2nc(-c3ccc(F)cc3)c(-c3ccncc3)[nH]2)cc1 (stereo not given) | 0.2
37 | NC1=N/C(=C2/CCNC(=O)c3[nH]ccc32)C(=O)N1 [DEBROMOHYMENIALDISINE] | -0.3

Continued, values first:

Row | ΔTm [°C] | Compound
38 | 3.6 | COc1cc(O)c2c(c1)oc(=O)c1c3cc(O)c(O)cc3oc21 [WEDELOLACTONE]
39 | 0.3 | CN(C)CCCn1cc(C2=C(c3c[nH]c4ccccc34)C(=O)NC2=O)c2ccccc21 [GF-109203]
40 | -0.2 | Cl.Cn1cc(C2=C(c3ccc4cc5n(c4c3)CCC(CN)C5)C(=O)NC2=O)c2ccccc21 (stereo not given)

Target: Serine/threonine-protein kinase 16 (Homo sapiens) (UniProt O75716)
Sequence (O75716 whole entry): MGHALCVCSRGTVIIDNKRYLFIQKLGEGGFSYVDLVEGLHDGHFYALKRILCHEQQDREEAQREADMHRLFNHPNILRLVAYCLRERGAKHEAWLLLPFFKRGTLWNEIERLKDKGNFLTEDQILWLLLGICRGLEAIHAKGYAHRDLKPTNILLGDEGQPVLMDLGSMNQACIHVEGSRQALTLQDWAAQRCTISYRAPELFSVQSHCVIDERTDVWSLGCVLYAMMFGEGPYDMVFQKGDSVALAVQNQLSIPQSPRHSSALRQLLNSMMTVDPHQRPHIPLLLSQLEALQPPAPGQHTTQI

Row | Compound | ΔTm [°C]
41 | C[S+]([O-])c1ccc(CSc2nc(-c3ccc(F)cc3)c(-c3ccncc3)[nH]2)cc1 (stereo not given) | 0.5
42 | NC1=N/C(=C2/CCNC(=O)c3[nH]ccc32)C(=O)N1 [DEBROMOHYMENIALDISINE] | 0.4

Now from value to molecule:

Row | ΔTm [°C] | Compound
43 | 0.1 | COc1cc(O)c2c(c1)oc(=O)c1c3cc(O)c(O)cc3oc21 [WEDELOLACTONE]
44 | 2.1 | CN(C)CCCn1cc(C2=C(c3c[nH]c4ccccc34)C(=O)NC2=O)c2ccccc21 [GF-109203]
45 | 1.2 | Cl.Cn1cc(C2=C(c3ccc4cc5n(c4c3)CCC(CN)C5)C(=O)NC2=O)c2ccccc21 (stereo not given)

Target: T3, Calcium/calmodulin-dependent protein kinase type IV (Homo sapiens) (UniProt Q16566)
T3 sequence (whole entry): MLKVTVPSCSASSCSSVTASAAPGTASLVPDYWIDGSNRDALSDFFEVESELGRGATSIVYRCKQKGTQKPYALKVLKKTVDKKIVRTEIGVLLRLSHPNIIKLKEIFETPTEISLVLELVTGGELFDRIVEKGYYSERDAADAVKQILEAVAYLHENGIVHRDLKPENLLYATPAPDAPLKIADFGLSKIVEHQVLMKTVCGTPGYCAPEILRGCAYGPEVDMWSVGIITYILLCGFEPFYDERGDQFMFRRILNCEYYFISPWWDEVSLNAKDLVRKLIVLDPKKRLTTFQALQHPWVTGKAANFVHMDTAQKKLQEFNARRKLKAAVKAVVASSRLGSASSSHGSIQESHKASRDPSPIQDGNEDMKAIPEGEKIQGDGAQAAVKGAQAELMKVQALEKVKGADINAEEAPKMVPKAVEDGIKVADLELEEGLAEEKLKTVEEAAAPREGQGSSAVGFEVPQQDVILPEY

Row | Compound | ΔTm [°C]
46 | C[S+]([O-])c1ccc(CSc2nc(-c3ccc(F)cc3)c(-c3ccncc3)[nH]2)cc1 (stereo not given) | 0
47 | NC1=N/C(=C2/CCNC(=O)c3[nH]ccc32)C(=O)N1 [DEBROMOHYMENIALDISINE] | 0

Further lines, results first:

Row | ΔTm [°C] | Compound
48 | 0.8 | COc1cc(O)c2c(c1)oc(=O)c1c3cc(O)c(O)cc3oc21 [WEDELOLACTONE]
49 | 1.1 | CN(C)CCCn1cc(C2=C(c3c[nH]c4ccccc34)C(=O)NC2=O)c2ccccc21 [GF-109203]
50 | 0.1 | Cl.Cn1cc(C2=C(c3ccc4cc5n(c4c3)CCC(CN)C5)C(=O)NC2=O)c2ccccc21 (stereo not given)

Target: Serine/threonine-protein kinase VRK2 (Homo sapiens) (UniProt Q86Y07)
Sequence (Q86Y07 whole entry): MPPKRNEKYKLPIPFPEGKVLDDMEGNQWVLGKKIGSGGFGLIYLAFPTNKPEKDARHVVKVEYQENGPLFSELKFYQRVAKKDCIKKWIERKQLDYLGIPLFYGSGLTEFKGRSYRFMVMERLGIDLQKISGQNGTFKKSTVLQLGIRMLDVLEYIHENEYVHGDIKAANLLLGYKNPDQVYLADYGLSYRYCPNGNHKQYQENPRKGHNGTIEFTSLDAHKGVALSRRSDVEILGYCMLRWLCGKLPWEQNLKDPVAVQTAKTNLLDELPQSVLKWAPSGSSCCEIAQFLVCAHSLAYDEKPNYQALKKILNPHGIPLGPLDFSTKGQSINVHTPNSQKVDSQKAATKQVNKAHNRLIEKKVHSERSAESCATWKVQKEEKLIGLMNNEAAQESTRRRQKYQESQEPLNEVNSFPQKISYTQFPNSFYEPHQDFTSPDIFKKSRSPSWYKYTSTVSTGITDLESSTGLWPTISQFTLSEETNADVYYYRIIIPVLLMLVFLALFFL

Row | Compound | ΔTm [°C]
51 | C[S+]([O-])c1ccc(CSc2nc(-c3ccc(F)cc3)c(-c3ccncc3)[nH]2)cc1 (stereo not given) | 0.1
52 | NC1=N/C(=C2/CCNC(=O)c3[nH]ccc32)C(=O)N1 [DEBROMOHYMENIALDISINE] | 0.7

The next lines start with the values.

Row | ΔTm [°C] | Compound
53 | 1.2 | COc1cc(O)c2c(c1)oc(=O)c1c3cc(O)c(O)cc3oc21 [WEDELOLACTONE]
54 | 0.9 | CN(C)CCCn1cc(C2=C(c3c[nH]c4ccccc34)C(=O)NC2=O)c2ccccc21 [GF-109203]
55 | 0.4 | Cl.Cn1cc(C2=C(c3ccc4cc5n(c4c3)CCC(CN)C5)C(=O)NC2=O)c2ccccc21 (stereo not given)
